These results are taken from article PMC5698089 (Archives of biochemistry and biophysics, 2017).

Holding throughout (test): surface plasmon resonance, immobilized protein, […] model
Common to all, as to assay type: binding
On the technique in general: In SPR one partner is held on a chip, and binding of the other changes the refractive index at the surface.

Assay [1] deals with T1, SR-B2 (Scavenger receptor class B protein 2) (Homo sapiens, UniProt Q14108).
T1 sequence (Q14108 1-478): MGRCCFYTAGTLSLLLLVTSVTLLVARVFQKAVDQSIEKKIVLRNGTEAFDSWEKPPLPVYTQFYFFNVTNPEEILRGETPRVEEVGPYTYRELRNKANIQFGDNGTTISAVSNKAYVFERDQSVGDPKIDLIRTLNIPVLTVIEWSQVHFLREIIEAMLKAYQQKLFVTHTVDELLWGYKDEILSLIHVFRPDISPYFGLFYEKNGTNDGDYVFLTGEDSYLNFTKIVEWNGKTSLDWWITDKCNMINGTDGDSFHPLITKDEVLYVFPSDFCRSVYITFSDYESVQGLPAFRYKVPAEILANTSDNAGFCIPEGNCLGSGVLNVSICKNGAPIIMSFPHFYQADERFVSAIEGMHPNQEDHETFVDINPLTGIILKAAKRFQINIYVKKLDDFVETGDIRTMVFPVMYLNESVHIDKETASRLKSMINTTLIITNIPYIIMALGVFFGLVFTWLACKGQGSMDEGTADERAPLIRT

Assay [2] addresses CD36 (Cluster determinant 36) (Homo sapiens, UniProt P16671).
Assay [3] addresses T2, SR-B1 (Scavenger receptor class B protein 1) (Homo sapiens, UniProt Q8WTV0).
T2 sequence (Q8WTV0 33-443 limits assumed): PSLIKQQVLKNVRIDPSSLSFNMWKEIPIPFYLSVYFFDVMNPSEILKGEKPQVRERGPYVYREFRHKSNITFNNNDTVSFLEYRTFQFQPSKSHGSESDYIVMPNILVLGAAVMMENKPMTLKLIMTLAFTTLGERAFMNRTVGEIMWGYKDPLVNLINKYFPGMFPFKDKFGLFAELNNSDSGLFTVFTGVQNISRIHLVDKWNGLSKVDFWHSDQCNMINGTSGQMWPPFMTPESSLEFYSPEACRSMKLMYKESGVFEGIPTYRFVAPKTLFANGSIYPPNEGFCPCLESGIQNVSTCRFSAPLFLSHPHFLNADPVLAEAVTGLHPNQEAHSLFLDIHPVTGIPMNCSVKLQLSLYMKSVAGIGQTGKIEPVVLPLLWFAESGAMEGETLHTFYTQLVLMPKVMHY

As usually defined, the Kd is the free concentration of one partner at which half of the binding sites on the other are occupied at equilibrium, for simple one-to-one binding. Read a low Kd as a tighter complex.

Chain of CD36 (Cluster determinant 36) (P16671 30-439 limits assumed): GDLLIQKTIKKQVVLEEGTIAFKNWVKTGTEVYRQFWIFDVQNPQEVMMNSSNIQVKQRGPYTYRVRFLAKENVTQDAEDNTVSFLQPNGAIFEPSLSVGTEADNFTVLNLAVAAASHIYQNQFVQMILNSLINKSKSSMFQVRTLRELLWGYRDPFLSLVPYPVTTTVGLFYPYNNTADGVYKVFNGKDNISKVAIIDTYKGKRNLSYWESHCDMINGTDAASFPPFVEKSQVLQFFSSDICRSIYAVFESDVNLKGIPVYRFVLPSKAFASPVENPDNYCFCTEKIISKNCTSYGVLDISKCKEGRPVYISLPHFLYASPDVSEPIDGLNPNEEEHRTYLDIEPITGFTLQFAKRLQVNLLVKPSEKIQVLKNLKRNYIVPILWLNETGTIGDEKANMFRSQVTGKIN

As to `CC1=C[C@H](O)CC(C)(C)[C@H]1/C=C/C(C)=C/C=C/C(C)=C/C=C/C=C(C)/C=C/C=C(C)/C=C/C1=C(C)C[C@@H](O)CC1(C)C` [lutein], the figures for the Kd in assay [1], in assay [2] and in assay [3] were 2510 ± 40 nM, 730 ± 6 nM and 2040 ± 40 nM, respectively.

In the case of `CC1=C(/C=C/C(C)=C/C=C/C(C)=C/C=C/C=C(C)/C=C/C=C(C)/C=C/C2=C(C)C[C@H](O)CC2(C)C)C(C)(C)C[C@H](O)C1` [meso-zeaxanthin], the Kd in assay [1] was found to be 3900 ± 40 nM; in assay [2] it was 1660 ± 10 nM; in assay [3] it was 3100 ± 200 nM.

For the compound `CC1=C(/C=C/C(C)=C/C=C/C(C)=C/C=C/C=C(C)/C=C/C=C(C)/C=C/C2=C(C)C[C@@H](O)CC2(C)C)C(C)(C)C[C@H](O)C1` [zeaxanthin], the Kd in assay [1] was 1530 ± 40 nM; in assay [2] it was 920 ± 7 nM; in assay [3] it was 1600 ± 100 nM.
